Test results as given in PubChem BioAssay AID1259407 (Chemical Carcinogenesis Research Information System (CCRIS), 2018).
Calls of active or inactive are those of the source. No rule for the calls is given here.

Test system: CCRIS mutagenicity, Ames/micronucleus/aberration tests
Assay: CCRIS mutagenicity studies

With `O=c1ccc2cc(O[C@@H]3O[C@H](CO)[C@@H](O)[C@H](O)[C@H]3O)c(O)cc2o1` the mutagenic call (Test System: AMES SALMONELLA TYPHIMURIUM, Strain/Indicator: TA92, Metabolic Activation: NONE, Method: SPOT TEST) was “inactive; negative”, the mutagenic call (Test System: AMES SALMONELLA TYPHIMURIUM, Strain/Indicator: TA92, Metabolic Activation: RAT, LIVER, S-9, AROCLOR 1254, Method: SPOT TEST) was “inactive; negative” and the mutagenic call (Test System: AMES SALMONELLA TYPHIMURIUM, Strain/Indicator: TA94, Metabolic Activation: NONE, Method: SPOT TEST) was “inactive; negative”. The mutagenic call (Test System: AMES SALMONELLA TYPHIMURIUM, Strain/Indicator: TA94, Metabolic Activation: RAT, LIVER, S-9, AROCLOR 1254, Method: SPOT TEST) was “inactive; negative”, the mutagenic call (Test System: AMES SALMONELLA TYPHIMURIUM, Strain/Indicator: TA97, Metabolic Activation: NONE, Method: SPOT TEST) was “inactive; negative” and the mutagenic call (Test System: AMES SALMONELLA TYPHIMURIUM, Strain/Indicator: TA97, Metabolic Activation: RAT, LIVER, S-9, AROCLOR 1254, Method: SPOT TEST) was “inactive; negative”. The mutagenic call (Test System: AMES SALMONELLA TYPHIMURIUM, Strain/Indicator: TA98, Metabolic Activation: NONE, Method: SPOT TEST) was “inactive; negative”, the mutagenic call (Test System: AMES SALMONELLA TYPHIMURIUM, Strain/Indicator: TA98, Metabolic Activation: RAT, LIVER, S-9, AROCLOR 1254, Method: SPOT TEST) was “inactive; negative” and the mutagenic call (Test System: AMES SALMONELLA TYPHIMURIUM, Strain/Indicator: TA100, Metabolic Activation: NONE, Method: SPOT TEST) was “inactive; negative”. The mutagenic call (Test System: AMES SALMONELLA TYPHIMURIUM, Strain/Indicator: TA100, Metabolic Activation: RAT, LIVER, S-9, AROCLOR 1254, Method: SPOT TEST) was “inactive; negative”, the mutagenic call (Test System: AMES SALMONELLA TYPHIMURIUM, Strain/Indicator: TA102, Metabolic Activation: NONE, Method: SPOT TEST) was “inactive; negative” and the mutagenic call (Test System: AMES SALMONELLA TYPHIMURIUM, Strain/Indicator: TA102, Metabolic Activation: RAT, LIVER, S-9, AROCLOR 1254, Method: SPOT TEST) was “inactive; negative”.

For `C#CCO`, the mutagenic call (End Point: In vivo micronucleus, Test System: Normochromatic erythrocytes, Species: Mouse, Strain/Sex: B6C3F1/Male) was “inactive; negative”, the mutagenic call (End Point: In vivo micronucleus, Test System: Normochromatic erythrocytes, Species: Mouse, Strain/Sex: B6C3F1/female) was “inactive; negative. in females, statistically significant trend test but no individual gro” and the mutagenic call (Test System: AMES SALMONELLA TYPHIMURIUM, Strain/Indicator: TA97, Metabolic Activation: NONE) was “inactive; negative”. For the same molecule, the mutagenic call (Test System: AMES SALMONELLA TYPHIMURIUM, Strain/Indicator: TA97, Metabolic Activation: RAT, LIVER, S-9, AROCLOR 1254) was “inactive; negative”, the mutagenic call (Test System: AMES SALMONELLA TYPHIMURIUM, Strain/Indicator: TA98, Metabolic Activation: NONE) was “inactive; negative” and the mutagenic call (Test System: AMES SALMONELLA TYPHIMURIUM, Strain/Indicator: TA98, Metabolic Activation: RAT, LIVER, S-9, AROCLOR 1254) was “inactive; negative”. For the same molecule, the mutagenic call (Test System: AMES SALMONELLA TYPHIMURIUM, Strain/Indicator: TA100, Metabolic Activation: NONE) was “inactive; negative”, the mutagenic call (Test System: AMES SALMONELLA TYPHIMURIUM, Strain/Indicator: TA100, Metabolic Activation: RAT, LIVER, S-9, AROCLOR 1254) was “inactive; negative” and the mutagenic call (Test System: AMES SALMONELLA TYPHIMURIUM, Strain/Indicator: TA102, Metabolic Activation: NONE) was “inactive; negative”. The mutagenic call (Test System: AMES SALMONELLA TYPHIMURIUM, Strain/Indicator: TA102, Metabolic Activation: RAT, LIVER, S-9, AROCLOR 1254) was “inactive; negative”, the mutagenic call (Test System: Ames Salmonella typhimurium, Strain/Indicator: TA98, Metabolic Activation: Hamster, Liver, S9, Aroclor 1254 (30%), Method: Preincubation) was “inactive; negative. authors judged results as equivocal” and the mutagenic call (Test System: Ames Salmonella typhimurium, Strain/Indicator: TA98, Metabolic Activation: Rat, Liver, S9, Aroclor 1254 (30%), Method: Preincubation) was “inactive; negative. precipitate at highest dose”. For the same molecule, the mutagenic call (Test System: Ames Salmonella typhimurium, Strain/Indicator: TA100, Metabolic Activation: Hamster, Liver, S9, Aroclor 1254 (30%), Method: Preincubation) was “inactive; negative”, the mutagenic call (Test System: Ames Salmonella typhimurium, Strain/Indicator: TA100, Metabolic Activation: Rat, Liver, S9, Aroclor 1254 (30%), Method: Preincubation) was “inactive; negative” and the mutagenic call (Test System: Ames Salmonella typhimurium, Strain/Indicator: TA1535, Metabolic Activation: None, Method: Preincubation) was “inactive; negative”.

With `O=C/C=C/c1ccco1` the mutagenic call (Test System: AMES SALMONELLA TYPHIMURIUM, Strain/Indicator: TA97, Metabolic Activation: HAMSTER, LIVER, S-9, AROCLOR 1254 (10%), Method: PREINCUBATION) was “inactive; negative”, the mutagenic call (Test System: AMES SALMONELLA TYPHIMURIUM, Strain/Indicator: TA97, Metabolic Activation: HAMSTER, LIVER, S-9, AROCLOR 1254 (30%), Method: PREINCUBATION) was “inactive; negative” and the mutagenic call (Test System: AMES SALMONELLA TYPHIMURIUM, Strain/Indicator: TA97, Metabolic Activation: NONE, Method: PREINCUBATION) was “inactive; negative”. The mutagenic call (Test System: AMES SALMONELLA TYPHIMURIUM, Strain/Indicator: TA97, Metabolic Activation: RAT, LIVER, S-9, AROCLOR 1254 (10%), Method: PREINCUBATION) was “inactive; negative”, the mutagenic call (Test System: AMES SALMONELLA TYPHIMURIUM, Strain/Indicator: TA97, Metabolic Activation: RAT, LIVER, S-9, AROCLOR 1254 (30%), Method: PREINCUBATION) was “inactive; negative” and the mutagenic call (Test System: AMES SALMONELLA TYPHIMURIUM, Strain/Indicator: TA98, Metabolic Activation: HAMSTER, LIVER, S-9, AROCLOR 1254 (10 OR 30%), Method: PREINCUBATION) was “inactive; negative”. The mutagenic call (Test System: AMES SALMONELLA TYPHIMURIUM, Strain/Indicator: TA98, Metabolic Activation: NONE, Method: PREINCUBATION) was “inactive; negative”, the mutagenic call (Test System: AMES SALMONELLA TYPHIMURIUM, Strain/Indicator: TA98, Metabolic Activation: RAT, LIVER, S-9, AROCLOR 1254 (10 OR 30%), Method: PREINCUBATION) was “inactive; negative” and the mutagenic call (Test System: AMES SALMONELLA TYPHIMURIUM, Strain/Indicator: TA100(NR), Metabolic Activation: NONE, Method: PREINCUBATION) was “inactive; negative”. The mutagenic call (Test System: AMES SALMONELLA TYPHIMURIUM, Strain/Indicator: TA100, Metabolic Activation: HAMSTER, LIVER, S-9, AROCLOR 1254 (10%), Method: PREINCUBATION) was “inactive; negative”, the mutagenic call (Test System: AMES SALMONELLA TYPHIMURIUM, Strain/Indicator: TA100, Metabolic Activation: HAMSTER, LIVER, S-9, AROCLOR 1254 (30%), Method: PREINCUBATION) was “inactive; negative” and the mutagenic call (Test System: AMES SALMONELLA TYPHIMURIUM, Strain/Indicator: TA100, Metabolic Activation: NONE, Method: PREINCUBATION) was “inactive; negative”. For the same molecule, the mutagenic call (Test System: AMES SALMONELLA TYPHIMURIUM, Strain/Indicator: TA100, Metabolic Activation: RAT, LIVER, S-9, AROCLOR 1254 (10%), Method: PREINCUBATION) was “inactive; negative”, the mutagenic call (Test System: AMES SALMONELLA TYPHIMURIUM, Strain/Indicator: TA100, Metabolic Activation: RAT, LIVER, S-9, AROCLOR 1254 (30%), Method: PREINCUBATION) was “inactive; negative” and the mutagenic call (Test System: AMES SALMONELLA TYPHIMURIUM, Strain/Indicator: TA100, Metabolic Activation: RAT, LIVER, S-9, AROCLOR 1254, Method: PREINCUBATION) was “inactive; negative”. The mutagenic call (Test System: AMES SALMONELLA TYPHIMURIUM, Strain/Indicator: TA1535, Metabolic Activation: HAMSTER, LIVER, S-9, AROCLOR 1254 (10%), Method: PREINCUBATION) was “inactive; negative”, the mutagenic call (Test System: AMES SALMONELLA TYPHIMURIUM, Strain/Indicator: TA1535, Metabolic Activation: HAMSTER, LIVER, S-9, AROCLOR 1254 (30%), Method: PREINCUBATION) was “inactive; negative” and the mutagenic call (Test System: AMES SALMONELLA TYPHIMURIUM, Strain/Indicator: TA1535, Metabolic Activation: NONE, Method: PREINCUBATION) was “inactive; negative”. For the same molecule, the mutagenic call (Test System: AMES SALMONELLA TYPHIMURIUM, Strain/Indicator: TA1535, Metabolic Activation: RAT, LIVER, S-9, AROCLOR 1254 (10%), Method: PREINCUBATION) was “inactive; negative” and the mutagenic call (Test System: AMES SALMONELLA TYPHIMURIUM, Strain/Indicator: TA1535, Metabolic Activation: RAT, LIVER, S-9, AROCLOR 1254 (30%), Method: PREINCUBATION) was “inactive; negative”.

With `COC1=CC(=O)c2c(nc(C)c3c4c([nH]c23)CCCC4)C1=O` the mutagenic call (Test System: AMES SALMONELLA TYPHIMURIUM, Strain/Indicator: TA97A, Metabolic Activation: NONE, Method: STANDARD PLATE) was “inactive; negative”, the mutagenic call (Test System: AMES SALMONELLA TYPHIMURIUM, Strain/Indicator: TA97A, Metabolic Activation: RAT LIVER S-9, AROCLOR 1254, Method: STANDARD PLATE) was “inactive; negative” and the mutagenic call (Test System: AMES SALMONELLA TYPHIMURIUM, Strain/Indicator: TA98, Metabolic Activation: NONE, Method: STANDARD PLATE) was “active; positive”. For the same molecule, the mutagenic call (Test System: AMES SALMONELLA TYPHIMURIUM, Strain/Indicator: TA98, Metabolic Activation: RAT LIVER S-9, AROCLOR 1254, Method: STANDARD PLATE) was “active; positive”, the mutagenic call (Test System: AMES SALMONELLA TYPHIMURIUM, Strain/Indicator: TA100, Metabolic Activation: NONE, Method: STANDARD PLATE) was “inactive; negative” and the mutagenic call (Test System: AMES SALMONELLA TYPHIMURIUM, Strain/Indicator: TA100, Metabolic Activation: RAT LIVER S-9, AROCLOR 1254, Method: STANDARD PLATE) was “inactive; negative”. For the same molecule, the mutagenic call (Test System: AMES SALMONELLA TYPHIMURIUM, Strain/Indicator: TA102, Metabolic Activation: NONE, Method: STANDARD PLATE) was “inactive; negative” and the mutagenic call (Test System: AMES SALMONELLA TYPHIMURIUM, Strain/Indicator: TA102, Metabolic Activation: RAT LIVER S-9, AROCLOR 1254, Method: STANDARD PLATE) was “inactive; negative”.
